Assay [1] concerns platelet CD62. In words: Detection of ADP as a GPIIb/IIIa DDPAS by DDPASFCA
The assay is classed as cell-based, human. The note with it: for + compound Med F12: + Compound A 1 μM; for no compound Med F12: no Compound A; for Delta Med F12: with minus without Compound A 1 μM. As for the experimental part: Adenosine diphosphate (ADP) was evaluated as a possible DDPAS as follows: Compound A (final concentration 1 μM) or vehicle was added to 25 μL of freshly prepared PRP in wells of a 96-well microtiter plate. Another set of wells received vehicle. After 10 minutes, 2.5 μL of from each well was transferred to microtiter wells containing only 20 μL of anti-CD62-PE. After incubation for 30 minutes, samples were analyzed by flow cytometry as in Example 1.

Assay [2] has as its system platelet CD62. In words: DDPASFCA in alternative microtiter plates (Costar Serocluster #3897 versus #3898). The format is cell-based, human. The note with it: with minus without Compound A 200 nM. As for the experimental part:
ADP and DPC38 were used as sources of DDPASs. 2 μL of citrated PRP (DPC3) was added to either Costar Serocluster® 96 well V-bottom microtiterplates (#3897) or #3898 microtiter plates (Costar Serocluster®) (rated as “hydrophilic” in nature by the manufacturer). Platelets were then treated with and without Compound A (200 nM) with the indicated concentrations of ADP. Similarly, DDPAS positive PRP (DPC38) was added to wells of both types of plates and treated with and without Compound A (200 nM). Reactions were incubated without shaking for 120 minutes. After this time, 20 μL of phycoerythrin conjugated anti-CD62 (anti-CD62-PE, Bectin Dickinson) was added. After 30 minutes the samples were diluted with 150 μL flow buffer and bound anti-CD62-PE measured as described in Example 1.
Delta SC=Delta Fluorescence for Costar Serocluster microtiter plates
Delta H=Delta Fluorescence for H3898 microtiter plates

[3] abbreviates: platelet donor DPC3, ADP 100 uM.

Consider `Nc1ncnc2c1ncn2[C@@H]1O[C@H](COP(=O)(O)OP(=O)(O)O)[C@@H](O)[C@H]1O` [ADP, Adenosine diphosphate], for which the results for the “+ compound Med F12” value in assay [1] (ADP 0.4 μM final), in assay [1] (ADP 2 μM final) and in assay [1] (ADP 10 μM final) were 20, 89 and 208, respectively. For the same compound, the “no compound Med F12” value came out at 14 in assay [1] (ADP 0.4 μM final); 48 in assay [1] (ADP 2 μM final); 126 in assay [1] (ADP 10 μM final, PRP, 10 minutes). The “Delta Med F12” value in assay [1] (ADP 0.4 μM final) is listed as 5; in assay [1] (ADP 2 μM final) it was 40; in assay [1] (ADP 10 μM final), 82. The “Delta CS (Delta Fluorescence for Costar Serocluster microtiter plates)” value in assay [2] (platelet donor DPC3, ADP 10 uM) worked out at 89; in assay [2] (setting [3]), 82. For the same compound, the “Delta H (Delta Fluorescence for H3898 microtiter plates)” value was determined as 157 in assay [2] (platelet donor DPC3, ADP 10 uM) and 168 in assay [2] (setting [3]).

Values taken from US20020132276A1, “FACS method for detecton of GPIIb/IIIa inhibitor dependent activators in plasma samples” (priority 1999, published 2002).
